# Test results reported in patent publication US20240336574A1 (LATIGO BIOTHERAPEUTICS, INC., priority 2021, published 2024).
# Where two headings read alike, the source gives them in different places.
# Molecular target: T1, recombinant human NaV1.8 stably transfected HEK cells (Homo sapiens, UniProt Q9Y5Y9)
# T1 construct: expressed in transfected cells; host or cells: HEK cells, stably transfected
# Assay: Compound profiling on NaV1.8, human NaV1.8 cell line, SyncroPatch384PE automated patch clamp assay (Example 115, third set of compounds, Table 27)
# Type: cell-based
# Details: human NaV1.8 HEK cells, Table 27 (third set of compounds)
# Experimental: Compound Profiling on NaV1.8 Human NaV1.8 Cell Line SyncroPatch384PE Assay
# Compounds were tested on recombinant human NaV1.8 stably transfected HEK cells using the SyncroPatch384PE system, an automated patch clamp device. Cells were cultured at 37° C./5% CO2 in DMEM medium supplemented with GlutaMAX I, NEAA 1%, FBS 10% and seeded in T175 flasks. Cells were cultured at 30° C. one day prior to recording sodium currents. On the day of the recordings, cells were detached with 0.05% Trypsin-EDTA, resuspended in serum free DMEM medium and placed into the SyncroPatch384PE 6° C. pre-cooled cell hotel and shaken at 200 rpm. Intracellular solution (IC) contained, in mM: 10, CsCl; 110, CsF; 20, EGTA; 10, HEPES. Extracellular solution (EC) contained, in mM: 140, NaCl; 4, KCl; 5, Glucose; 10, HEPES; 2, CaCl2; 1, MgCl2. Washing solution contained, in mM: 40, NMDG; 100, NaCl; 4, KCl; 10, Glucose; 10, HEPES; 5, CaCl2; 1, MgCl2.
# Compounds were tested in quadruplicates in 0.1% DMSO and 0.030% Pluronic Acid. Compounds were diluted 1:3.33 in EC solution to create a 10-point concentration response curve, spanning a final concentration range from 10-0.0002 μM in the assay plate. Compounds with low nM potency were retested using a lower concentration range (1-0.00002 μM). Each plate contained tetracaine and another tool compound as positive controls. Up to 7 compounds were tested on one plate. 150 μM tetracaine and 0.1% DMSO were used as high and low controls, respectively.
# Whole cell patch clamp recordings were conducted according to Nanion's standard procedure for SyncroPatch384PE®. Cells were held at a holding potential of −120 mV. A depolarization step to 10 mV for 30 ms was applied (P1 measurement), followed by a hyperpolarization step to −100 mV for 100 ms. An inactivation step at −40 mV for 10 sec was applied before stepping to −100 mV for 20 ms, followed by a step to 10 mV for 30 ms (P2 measurement) and then back to −100 mV for 30 ms. Sweep interval was 15 sec with a sampling rate of 10 kHz. Following establishment of the whole-cell configuration in EC, two washing steps with reference buffer were performed to stabilize the baseline. Compounds were then applied by the SynchroPatch into each well and the current was recorded for five minutes in EC, followed by application of tetracaine to achieve full block at the end of the experiment. The potency of the compounds was assessed on two read-outs, resting state block (P1 measurement) or inactivated state block (P2 measurement) to obtain IC50 values. Values were normalized to high (tetracaine) and low (DMSO) controls.
# [1] = inactivated state block (P2 measurement), read-out: P2 IC50
# [2] = resting state block (P1 measurement), read-out: P1 IC50
# T1 sequence (Q9Y5Y9 whole entry): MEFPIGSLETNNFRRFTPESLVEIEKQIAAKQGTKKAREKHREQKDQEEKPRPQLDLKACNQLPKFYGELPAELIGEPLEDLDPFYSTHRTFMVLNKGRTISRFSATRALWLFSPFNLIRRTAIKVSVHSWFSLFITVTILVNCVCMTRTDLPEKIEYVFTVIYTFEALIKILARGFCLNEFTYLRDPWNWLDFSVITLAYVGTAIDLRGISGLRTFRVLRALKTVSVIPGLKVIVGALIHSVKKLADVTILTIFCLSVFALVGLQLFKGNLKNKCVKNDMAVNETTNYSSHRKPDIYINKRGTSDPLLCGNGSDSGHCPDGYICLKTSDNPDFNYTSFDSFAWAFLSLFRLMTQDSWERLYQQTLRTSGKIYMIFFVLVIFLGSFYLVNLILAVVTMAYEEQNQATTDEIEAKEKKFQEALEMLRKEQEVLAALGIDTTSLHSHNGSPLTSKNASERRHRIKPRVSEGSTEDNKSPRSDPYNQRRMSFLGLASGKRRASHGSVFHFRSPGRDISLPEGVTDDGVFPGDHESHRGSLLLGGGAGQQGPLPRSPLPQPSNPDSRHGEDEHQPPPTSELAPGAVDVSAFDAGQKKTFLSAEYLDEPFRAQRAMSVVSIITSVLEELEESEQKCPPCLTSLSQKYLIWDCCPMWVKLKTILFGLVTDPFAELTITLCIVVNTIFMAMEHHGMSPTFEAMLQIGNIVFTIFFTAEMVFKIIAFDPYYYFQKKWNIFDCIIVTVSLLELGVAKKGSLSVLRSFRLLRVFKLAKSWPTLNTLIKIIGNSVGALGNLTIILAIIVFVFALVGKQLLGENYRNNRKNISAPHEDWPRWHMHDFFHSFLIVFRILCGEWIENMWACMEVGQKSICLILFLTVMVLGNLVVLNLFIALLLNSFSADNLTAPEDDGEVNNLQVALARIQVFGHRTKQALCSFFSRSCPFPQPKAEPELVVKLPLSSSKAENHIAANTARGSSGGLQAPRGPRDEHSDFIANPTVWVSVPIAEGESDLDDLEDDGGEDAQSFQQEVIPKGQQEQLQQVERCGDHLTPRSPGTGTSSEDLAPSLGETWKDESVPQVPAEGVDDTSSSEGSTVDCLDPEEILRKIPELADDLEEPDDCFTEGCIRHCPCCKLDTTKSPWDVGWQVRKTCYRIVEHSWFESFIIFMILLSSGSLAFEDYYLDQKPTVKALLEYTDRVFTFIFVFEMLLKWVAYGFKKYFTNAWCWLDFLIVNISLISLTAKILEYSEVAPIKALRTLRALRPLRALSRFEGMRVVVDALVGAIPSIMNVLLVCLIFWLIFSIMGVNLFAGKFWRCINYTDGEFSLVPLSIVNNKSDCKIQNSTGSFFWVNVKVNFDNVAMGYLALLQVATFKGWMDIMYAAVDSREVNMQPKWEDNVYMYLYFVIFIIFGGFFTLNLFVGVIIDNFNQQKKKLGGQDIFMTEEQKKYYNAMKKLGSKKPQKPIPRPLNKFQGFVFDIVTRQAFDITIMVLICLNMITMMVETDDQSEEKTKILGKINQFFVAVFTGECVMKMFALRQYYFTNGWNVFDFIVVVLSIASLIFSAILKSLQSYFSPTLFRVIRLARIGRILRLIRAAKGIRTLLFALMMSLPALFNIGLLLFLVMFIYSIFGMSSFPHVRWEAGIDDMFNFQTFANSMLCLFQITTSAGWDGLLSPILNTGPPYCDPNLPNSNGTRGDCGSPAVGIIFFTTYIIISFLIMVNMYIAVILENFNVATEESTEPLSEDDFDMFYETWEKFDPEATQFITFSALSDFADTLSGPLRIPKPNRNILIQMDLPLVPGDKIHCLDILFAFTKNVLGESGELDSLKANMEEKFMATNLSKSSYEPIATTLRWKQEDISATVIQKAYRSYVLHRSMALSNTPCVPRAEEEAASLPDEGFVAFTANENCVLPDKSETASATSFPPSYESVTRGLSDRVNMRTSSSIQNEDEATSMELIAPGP
IC50 [1] [nM],IC50 [2] [nM],SMILES
> 5000,> 5000,"Cc1cc(F)ccc1Oc1nnc(C(F)(F)F)cc1C(=O)Nc1ccc(S(C)(=N)=O)cc1 (stereo not shown) [Compound 98, 3-(4-Fluoro-2-methylphenoxy)-N-(4-(S-methylsulfonimidoyl)phenyl)-6-(trifluoromethyl)pyridazine-4-carboxamide]"
201 to 500,501 to 1000,COc1cc(F)ccc1Oc1nnc(C(F)(F)F)cc1C(=O)Nc1cccc(S(=O)(=O)C(C)C)c1 [Compound 17]
201 to 500,201 to 500,"CNC(=O)c1cccc(NC(=O)c2cc(C(F)(F)F)nnc2Oc2ccc(F)cc2OC)c1 [Compound 129, 3-(4-Fluoro-2-methoxyphenoxy)-N-(3-(methylcarbamoyl)phenyl)-6-(trifluoromethyl)pyridazine-4-carboxamide]"
> 5000,> 5000,Cc1cc(C#N)ccc1Oc1nnc(C(F)(F)F)cc1C(=O)Nc1cccc(S(C)(=O)=O)c1 [Compound 78]
≤ 200,≤ 200,Cc1cc(C2CC2)ccc1Oc1nnc(C(F)(F)F)cc1C(=O)Nc1cccc(S(C)(=O)=O)c1 [Compound 87]
> 5000,> 5000,CSc1cccc(NC(=O)c2cc(C(F)(F)F)nnc2Oc2ccc(C#N)cc2C)c1 [Compound 110]
> 5000,> 5000,COC(=O)c1cncc(NC(=O)c2cc(C(F)(F)F)nnc2Oc2ccc(F)cc2OC)n1 [Compound 46]
≤ 200,≤ 200,"NS(=O)(=O)c1cccc(NC(=O)c2cc(C(F)(F)F)nnc2Oc2cc(F)ccc2Cl)c1 [Compound 118, 3-(2-Chloro-5-fluorophenoxy)-N-(3-sulfamoylphenyl)-6-(trifluoromethyl)pyridazine-4-carboxamide]"
≤ 200,≤ 200,COc1cc(C#N)ccc1Oc1nnc(C(F)(F)F)cc1C(=O)Nc1cccc(C(N)=O)c1 [Compound 76]
1000 to 5000,1000 to 5000,"O=C(Nc1cc[nH]c(=O)c1)c1cc(C(F)(F)F)nnc1Oc1ccc(F)cc1Cl [Compound 89, 3-(2-Chloro-4-fluorophenoxy)-N-(2-oxo-1,2-dihydropyridin-4-yl)-6-(trifluoromethyl)pyridazine-4-carboxamide]"
≤ 200,≤ 200,CS(=O)(=O)c1cccc(NC(=O)c2cc(C(F)(F)F)nnc2Oc2ccc(OC(F)F)cc2)c1 [Compound 34]
201 to 500,201 to 500,COc1cc(F)ccc1Oc1nnc(C(F)(F)F)cc1C(=O)Nc1cccc(S2(=O)=NCCC2)c1 (stereo not shown) [Compound 45]
501 to 1000,501 to 1000,"CNC(=O)c1ccc(NC(=O)c2cc(C(F)(F)F)nnc2Oc2ccc(F)cc2OC)cc1 [Compound 127, 3-(4-Fluoro-2-methoxyphenoxy)-N-(4-(methylcarbamoyl)phenyl)-6-(trifluoromethyl)pyridazine-4-carboxamide]"
201 to 500,201 to 500,Cc1cc(C#N)ccc1Oc1nnc(C(F)(F)F)cc1C(=O)Nc1cccc(C(N)=O)c1 [Compound 79]
201 to 500,201 to 500,CS(=O)(=O)c1cccc(NC(=O)c2cc(C(F)(F)F)nnc2Oc2cc(F)ccc2Cl)c1 [Compound 73]
> 5000,> 5000,COc1cc(F)ccc1Oc1nnc(C)cc1C(=O)Nc1cccc(S(C)(=O)=O)c1 [Compound 104]
1000 to 5000,1000 to 5000,CS(=N)(=O)c1cc(NC(=O)c2cc(C(F)(F)F)nnc2Oc2ccc(F)cc2Cl)ccn1 (stereo not shown) [Compound 97]
≤ 200,≤ 200,"COc1cc(F)ccc1Oc1nnc(C(F)(F)F)cc1C(=O)Nc1cccc(S(C)(=N)=O)c1 (stereo not shown) [Compound 99, 3-(4-Fluoro-2-methoxyphenoxy)-N-(3-(S-methylsulfonimidoyl)phenyl)-6-(trifluoromethyl)pyridazine-4-carboxamide]"
> 5000,> 5000,COc1cc(F)ccc1Oc1nnc(C)cc1C(=O)Nc1cccc([S+](C)[O-])c1 (stereo not shown) [Compound 105]
≤ 200,≤ 200,COc1cc(NC(=O)c2cc(C(F)(F)F)nnc2Oc2ccc(F)cc2OC)ccn1 [Compound 33]
